# Molecular target: MAT2A (Homo sapiens (Human), UniProt P31153)
# Assay: MAT2A Biochemical Assay
# Details: Biomol Green readout O.D.620; 1 uM start, 3-fold dilution, 10 doses; read-out: MAT2A enzymatic IC50
# Method: Example A: MAT2A Biochemical Assay
# Compounds described herein were tested as follows:
# • (1). Prepared 1×Assay buffer. • (2). Preparation of compound concentration gradient: the compounds test condition were 1 uM start, 3-fold dilution, 10 doses, singlet or duplicate. 100× concentration compounds were prepared in 384-well plate. Then used Echo 550 to transfer 250 nl to a 384-reaction plate for later use. Added 250 nl of 100% DMSO to the negative and positive control wells. • (3). Prepared 1.67× final concentration enzyme solution with 1×Assay buffer. • (4). Added 15 μl of 1.67× Enzyme solution to the compound wells and positive control wells; added 15 μl of 1 Assay buffer to the negative control wells. • (5). Centrifuged at 1000 rpm for 30 seconds and incubate for 15 minutes. • (6). Prepared 2.5× final concentration Substrate mix solution with 1×Assay buffer. • (7). Added 10 μl of 2.5× final concentration Substrate mix solution to start the reaction. • (8). Centrifuged at 1000 rpm for 30 seconds and incubate for 150 minutes. • (9). Added 50 μl Biomol Green to stop the reaction, centrifuge at 1000 rpm for 30 seconds and incubate for 15 minutes. read O.D.620, process data.
# • (1) Using GraphPad Prism 5. • (2) % Inh=(Max signal−Compound signal)/(Max signal−Min signal)*100. • (3) Max signal was obtained from the positive control wells. • (4) Min signal was obtained from the negative control wells.
# Sequence of MAT2A (P31153 whole entry, species assumed): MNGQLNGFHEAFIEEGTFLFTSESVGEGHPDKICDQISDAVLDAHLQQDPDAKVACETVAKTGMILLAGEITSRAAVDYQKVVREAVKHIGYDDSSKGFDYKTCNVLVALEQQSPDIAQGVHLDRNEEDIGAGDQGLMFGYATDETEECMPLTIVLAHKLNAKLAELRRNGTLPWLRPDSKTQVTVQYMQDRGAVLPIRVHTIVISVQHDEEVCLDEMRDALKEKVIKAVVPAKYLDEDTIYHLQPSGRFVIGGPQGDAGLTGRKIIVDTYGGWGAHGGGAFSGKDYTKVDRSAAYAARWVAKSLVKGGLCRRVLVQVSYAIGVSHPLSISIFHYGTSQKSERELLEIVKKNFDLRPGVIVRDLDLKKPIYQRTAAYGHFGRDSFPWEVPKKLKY
row,SMILES,IC50 [nM]
1,C#CC1(Nc2nc(=O)n(-c3cccnc3C)c3cc(C(F)(F)F)cc(OC)c23)CCC1 [Example 50],< 50
2,C#CCN(C)c1nc(=O)n(-c2cccnc2)c2cc(C(F)(F)F)ccc12 [Example 51],< 50
3,"C#CCNc1nc(=O)n(-c2c(C)ccnc2C)c2cc(C(F)(F)F)ccc12 [Example 52, 1-(2,4-dimethylpyridin-3-yl)-4-(prop-2-yn-1-ylamino)-7-(trifluoromethyl)quinazolin-2 (11H)-one]",< 50
4,"C#CCNc1nc(=O)n(-c2cnccn2)c2cc(C(F)(F)F)ccc12 [Example 53, 4-(prop-2-yn-1-ylamino)-1-(pyrazin-2-yl)-7-(trifluoromethyl)quinazolin-2 (1H)-one]",< 50
5,"C#CCNc1nc(=O)n(-c2cnccn2)c2cc(C(F)(F)F)cc(OC)c12 [Example 54, 5-methoxy-4-(prop-2-yn-1-ylamino)-1-(pyrazin-2-yl)-7-(trifluoromethyl)quinazolin-2 (1H)-one]",< 50
6,"C#CC1(Nc2nc(=O)n(-c3cccnc3)c3cc(C(F)(F)F)cnc23)CC1 [Example 56, 4-((1-ethynylcyclopropyl)amino)-1-(pyridin-3-yl)-7-(trifluoromethyl)pyrido[3,2-d]pyrimidin-2 (1H)-one]",> 1000
7,"C#CCNc1nc(=O)n(-c2cccnc2)c2nc(C(F)(F)F)ccc12 [Example 57, 4-(prop-2-yn-1-ylamino)-1-(pyridin-3-yl)-7-(trifluoromethyl)pyrido[2,3-d]pyrimidin-2 (1H)-one]",< 50
8,"C#CCNc1nc(=O)n(-c2cccnc2)c2nc(C(F)(F)F)ncc12 [Example 61, 4-(prop-2-yn-1-ylamino)-1-(pyridin-3-yl)-7-(trifluoromethyl)pyrimido[4,5-d]pyrimidin-2 (1H)-one]",< 50
9,"C#CCNc1nc(=O)n(-c2cccnn2)c2nc(C(F)(F)F)ccc12 [Example 63, 4-(prop-2-yn-1-ylamino)-1-(pyridazin-3-yl)-7-(trifluoromethyl)pyrido[2,3-d]pyrimidin-2 (1H)-one]",< 50
10,C#CC(C)Nc1nc(=O)n(-c2cccnc2)c2cc(C(F)(F)F)ccc12 (stereo not drawn) [Example 64],< 50
11,C#CC(C)Nc1nc(=O)n(-c2cccnc2)c2cc(Cl)cc(OC)c12 (stereo not drawn) [Example 65],< 50

# Other lines, results leading:
row,IC50 [nM],SMILES
1,< 50,C#CC1(Nc2nc(=O)n(-c3cccnc3)c3cc(Cl)cc(OC)c23)CC1 [Example 66]
2,< 50,C#CC1(Nc2nc(=O)n(-c3cccnc3)c3cc(C(F)(F)F)ccc23)CC1 [Example 67]
3,< 50,"C#CC1(Nc2nc(=O)n(-c3cccnc3)c3nc(C(F)(F)F)ccc23)CC1 [Example 68, 4-((1-ethynylcyclopropyl)amino)-1-(pyridin-3-yl)-7-(trifluoromethyl)pyrido[2,3-d]pyrimidin-2 (1H)-one]"
4,< 50,"C#CC1(Nc2nc(=O)n(-c3cnccn3)c3cc(C(F)(F)F)ccc23)CC1 [Example 69, 4-((1-ethynylcyclopropyl)amino)-1-(pyrazin-2-yl)-7-(trifluoromethyl)quinazolin-2 (1H)-one]"
5,< 50,"C#CC1(Nc2nc(=O)n(-c3cccnn3)c3nc(C(F)(F)F)ccc23)CC1 [Example 70, 4-((1-ethynylcyclopropyl)amino)-1-(pyridazin-3-yl)-7-(trifluoromethyl)pyrido[2,3-d]pyrimidin-2 (1H)-one]"
6,< 50,C=CCNc1nc(=O)n(-c2cccnc2)c2cc(Cl)cc(OC)c12 [Example 73]
7,< 50,C=CCNc1nc(=O)n(-c2cccnc2C)c2cc(Cl)cc(OC)c12 [Example 74]
8,< 50,"C=CC1(Nc2nc(=O)n(-c3cccnc3C)c3cc(Cl)cc(OC)c23)CC1 [Example 75, 7-chloro-5-methoxy-1-(2-methylpyridin-3-yl)-4-((1-vinylcyclopropyl)amino)quinazolin-2 (1H)-one]"
9,< 50,C=CCNc1nc(=O)n(-c2cccnc2)c2cc(C(F)(F)F)ccc12 [Example 76]
10,< 50,C=CCNc1nc(=O)n(-c2cccnc2C)c2cc(C(F)(F)F)cc(OC)c12 [Example 77]

# Source: patent US20250042890A1, “METHIONINE ADENOSYLTRANSFERASE 2a (MAT2A) INHIBITORS AND USES THEREOF” (Insilico Medicine IP Limited, priority 2021, published 2025)
